From the METLIN SMRT retention time set (Domingo-Almenara et al. 2019) come the findings set out here.

This series can be described thus: gradient 5% acetonitrile 3 min, to 50% in 2 min, to 85% in 15 min, held 3 min, 100 µL/min. Particulars: column: Zorbax Extend-C18 2.1 x 50 mm; eluents: water / acetonitrile, 0.1% formic acid. In short, it runs like this:
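Retention times of pure standards were taken from adduct peaks that were selected by computer and manually inspected. Over 3 months, mixtures of ~100 molecules were run by HPLC–quadrupole time-of-flight mass spectrometry in positive and negative ionization mode. The Zorbax Extend-C18 column (2.1 × 50 mm, 1.8 μm) ran at 100 μL/min in water and acetonitrile, each containing 0.1% formic acid, with 40 μL dead volume and 900 μL dwell volume.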
In the case of `CCCCCn1c(=O)c2ccccc2n(Cc2nc(-c3ccc(Cl)cc3)no2)c1=O`, the RP-LC retention time turned out to be 1340 s.

As for `Cn1c(CN2CCN(C(=O)Nc3ccccc3C(F)(F)F)CC2)nc2ccccc21`, the RP-LC retention time turned out to be 558 s. Consider `COc1cc(NC(=O)NC2CCN(c3ccccc3)C2=O)cc(OC)c1` (stereo not given), for which the RP-LC retention time is 768 s. In the case of `Cc1cccc(Sc2nccnc2N2CCCC(C(=O)NCc3ccc4c(c3)OCO4)C2)c1` (stereo not given), the RP-LC retention time is 1030 s. The molecule `CC(NC(=O)c1cn(-c2cc(-c3nc(C(C)(C)C)no3)ccn2)cn1)c1ccccc1` (stereo not given) displayed an RP-LC retention time of 1100 s. `COC(=O)c1sccc1S(=O)(=O)N1CCN(c2ccccn2)CC1`: the RP-LC retention time is 624 s. For the molecule `Cc1ccc(NC(=O)C2CCCN(S(=O)(=O)c3cn(C(C)C)cn3)C2)cc1Cl` (stereo not given), the RP-LC retention time was determined as 879 s. In the case of `Cc1cc(C)c(S(=O)(=O)N2CCCC2c2nc(-c3cccc(F)c3)no2)cc1C` (stereo not given), the RP-LC retention time was 1270 s.

The molecule `Cc1ccc(CNc2c(-c3ccc(C)cc3)nc3ncccn23)cc1` showed an RP-LC retention time of 812 s.

`COc1ccccc1C(=O)NC1(C(F)(F)F)C(=O)N(CC2CCCO2)C(C)=C1C(C)=O` (stereo not given) yielded an RP-LC retention time of 774 s.

In the case of `CCn1c(-c2cccc(C(N)=O)c2)nc2cccnc21`, the RP-LC retention time is 591 s.

For `COCCN1C(=O)CCC2(C(=O)Nc3cc(OC)cc(OC)c3)CCCC=C12` (stereo not given), the RP-LC retention time was found to be 763 s. In turn, `CCOc1ccc(N2CC(C)Cn3c2nc2c3c(=O)n(C)c(=O)n2C)cc1` (stereo not given) came in with an RP-LC retention time of 831 s. For `CCSc1nc2ccc(NS(=O)(=O)c3ccc4c(c3)CCC4)cc2s1`, the RP-LC retention time was 1110 s. Regarding `Cc1nc(N2CCN(c3ccccn3)CC2)nc2c1C(=O)CC(C)(C)C2`, the RP-LC retention time worked out at 677 s.

Molecule `CC(=O)c1cccc(NC(=O)Cn2cccc2-c2nc(-c3ccc4c(c3)OCO4)no2)c1` yielded an RP-LC retention time of 951 s.

In the case of `O=C1COc2ccc(Cl)cc2N1Cc1nc(-c2ccc(F)cc2)no1`, the RP-LC retention time came out at 1070 s.

For `O=C(c1ccc(Br)cc1)N1CCc2nc(-c3ccc(Cl)cc3)ncc2C1`, the RP-LC retention time came to 1160 s.

Turning to `CNC(=O)N1CCCC(c2cccc(C(=O)NC3CCCCCC3)c2)C1` (stereo not given), the RP-LC retention time turned out to be 820 s. Turning to `O=S(=O)(Cc1ccccc1)N1CCC(n2c(-c3ccoc3)nc3cccnc32)C1` (stereo not given), the RP-LC retention time is 787 s.

Take `O=C(Nc1ccc(-c2cn3c(C(=O)N4CCCC4)csc3n2)cc1)c1ccccc1`: the RP-LC retention time was 780 s. As to `Cc1ccc(C)c(NC(=O)Cn2ncc3c(c2=O)N(C2CC2)C(=O)CS3)c1`, the RP-LC retention time worked out at 732 s. `COc1cc2c(cc1CNC(=O)COc1ccc(Cl)c(C)c1)OCCCO2` gave an RP-LC retention time of 1010 s.

Molecule `COc1ccc(CC(=O)N2CCC3(C2)C(=O)N(C)c2ccc(OC)cc23)c(Cl)c1` (stereo not given) came in with an RP-LC retention time of 825 s. Take `CCC(Sc1nc2ccccc2[nH]1)C(=O)Nc1nnc(C)s1` (stereo not given): the RP-LC retention time amounted to 689 s. In the case of `CCN1CCN(c2nc3cc(C(=O)OC)ccc3c(=O)n2-c2ccc3c(c2)OCO3)CC1` it was 648 s; in that of `CCCCn1c(=O)c2ccccc2n(Cc2nc(-c3cccc(C(F)(F)F)c3)no2)c1=O`, 1240 s. For the molecule `CC1=C(c2cccc(Cl)c2)S(=O)(=O)N=C1N1CCCN(C(=O)C2CCC2)CC1`, the RP-LC retention time was 850 s. Turning to `O=C(NCc1ccco1)N1CCN(Cc2nc3cccnc3n2-c2ccccc2)CC1`, the RP-LC retention time turned out to be 620 s.

The molecule `COc1ccc(-c2cn3ccn(-c4cc(C)c(Cl)cc4OC)c(=O)c3n2)cc1` returned an RP-LC retention time of 924 s. `Cc1cc(OCC(=O)Nc2nc(-c3ccccc3)cs2)ccc1Cl` had an RP-LC retention time of 1180 s.

For the molecule `Cc1ccc(Cn2cc(-c3noc(-c4ccc(N(C)C)cc4)n3)nn2)cc1`, the RP-LC retention time amounted to 1070 s. The molecule `CC(C)NCc1ccc(-c2ccccc2Cl)o1` came in with an RP-LC retention time of 673 s.

In turn, `O=C(c1ccc2ccccc2n1)N1CCOc2ccc(N3CCOCC3)cc2C1` displayed an RP-LC retention time of 784 s. The molecule `COCCn1ccc2nc(C)c(C(=O)NCc3cccs3)cc2c1=O` showed an RP-LC retention time of 656 s.

As to `CCOc1ccc(-c2c(C)nn3c(C)c(C(=O)NCCCN4CCCC4=O)cnc23)cc1OCC`, the RP-LC retention time worked out at 744 s. Next, `Cc1ccc(CC(=O)N2CCC3(CC2)NC(=O)c2ccc(F)cc2N3C)cc1`: 787 s. `CCc1ccc(NC(=O)Cn2nc(N3CCCC(C)C3)c3ccccc3c2=O)cc1` (stereo not given) had an RP-LC retention time of 1160 s. As for `CCCCOc1ccc(-c2nc(C3CC(=O)N(c4ccc(OC)c(OC)c4)C3)no2)cc1` (stereo not given), the RP-LC retention time is 1120 s.

The molecule `CN(C)c1cccc(-c2nc(-c3cn(Cc4ccc(F)cc4)nn3)no2)c1` displayed an RP-LC retention time of 1030 s. In the case of `CCOCCCNCc1ccc(-c2ccccc2F)o1`, the RP-LC retention time is 672 s. In the case of `COc1ccc(N2CCN(C(=O)Cn3ccc4c(SCc5ccc(F)cc5)nccc43)CC2)cc1` it was 759 s. For `COC(=O)c1ccc2c(=O)n(-c3ccc(Cl)cc3)c(N3CCN(C)CC3)nc2c1`, the RP-LC retention time turned out to be 670 s. As for `O=C(Nc1ccnn1Cc1cccs1)c1ccccc1Br`, the RP-LC retention time stood at 794 s. `Cc1ccsc1C(=O)NCC1Cn2cccc2C(=O)N1C` (stereo not given) displayed an RP-LC retention time of 656 s.

`CN1CCN2c3ncccc3Cc3ccccc3[C@@H]2C1` came in with an RP-LC retention time of 647 s. The molecule `COc1ccc2nc(C(=O)NCc3ccccc3Cl)cn2n1` displayed an RP-LC retention time of 830 s.

`O=C1C2CCCN2C(=O)c2ccccc2N1CCc1ccccc1` (stereo not given) had an RP-LC retention time of 757 s. `CCOc1nccnc1N1CCC(NC(=O)c2ccc(C#N)cc2)C1` (stereo not given) returned an RP-LC retention time of 650 s. Next, `CSc1ccccc1NC(=O)C(=O)NCC1CCN(C(=O)Oc2ccccc2)CC1`: 998 s.

In turn, `Cc1c(-c2cccc(NS(=O)(=O)c3ccc(Cl)cc3)c2)nc2ncccn12` had an RP-LC retention time of 627 s.

In the case of `Cc1ccc2oc(N3CCN(C(=O)Cc4ccccc4)CC3)nc2n1`, the RP-LC retention time was 620 s. Next, `COc1ccc(-c2noc(C3CCCN3C(=O)c3cc4ccccc4[nH]3)n2)cc1OC` (stereo not given): 971 s; `COc1cc(NC(=O)CCSc2nc3c(=O)n(C)c(=O)n(C)c3n2C)c(OC)cc1Cl`: 735 s; `CC(C)(C)c1nnc(NC(=O)C2CC(=O)N(CCc3c[nH]c4ccc(F)cc34)C2)s1` (stereo not given): 782 s.

For the molecule `CC1SC(C)C(=O)N(CC(=O)Nc2ccc3c(c2)OCCO3)C1=O` (stereo not given), the RP-LC retention time was determined as 735 s. Take `CN(Cc1ccccc1)S(=O)(=O)c1cc2c3c(c1)CCC(=O)N3CCC2`: the RP-LC retention time is 926 s. In the case of `Cc1nc(CC(=O)Nc2ccc(Cl)c(F)c2)sc1C(=O)NC1CC1`, the RP-LC retention time came out at 750 s. In the case of `COc1ccc(-c2noc(C3CC(=O)N(c4ccc(OC)c(Cl)c4)C3)n2)cc1` (stereo not given), the RP-LC retention time was found to be 947 s. `Cc1cc(C)cc(NC(=O)CN2C(=O)C3CCCCN3c3ccc(S(=O)(=O)N(C)C)cc32)c1` (stereo not given) showed an RP-LC retention time of 994 s. Take `O=C(Cn1c(=O)oc2ccccc21)N1CC2CC(C1)c1cccc(=O)n1C2` (stereo not given): the RP-LC retention time was found to be 588 s.

`O=S(=O)(c1ccc(Br)cc1)N1CCSC1c1ccco1` (stereo not given) returned an RP-LC retention time of 965 s. With `Cc1nc(CC(=O)Nc2nc(-c3cccc(Cl)c3)c(C)s2)cs1`, the RP-LC retention time is 994 s.

Molecule `CCc1noc(-c2cccnc2N2CCCN(Cc3cccc(F)c3)CC2)n1` yielded an RP-LC retention time of 660 s. Molecule `CCCNC(=O)C1(CCO)CCN(c2ncccn2)C1` (stereo not given) gave an RP-LC retention time of 560 s. For `CCCn1c(=O)sc2cc(S(=O)(=O)N3CCC(C(=O)Nc4ccc(CC)cc4)CC3)ccc21`, the RP-LC retention time turned out to be 929 s. Next, `COCCN1CCC(N2CCCN(C(=O)c3ccc(F)c(Cl)c3)CC2)C1=O` (stereo not given): 573 s; `CCN1CCN(c2cc(C)c3cc(NC(=O)c4cc(-c5ccco5)nc5ccccc45)ccc3n2)CC1`: 599 s. In the case of `Cc1ccccc1NC(=O)C1(C)Oc2cccnc2N(C)C1=O` (stereo not given) it was 778 s; in that of `CCN1CCN(CCNC(=O)Cn2c3ccccc3c3cnn(C)c(=O)c32)CC1`, 577 s.

In turn, `O=C(NCC1CCS(=O)(=O)C1)c1ccc2nsnc2c1` (stereo not given) displayed an RP-LC retention time of 609 s. As for `CN(CC1CCOCC1)C(=O)Nc1ccc(F)c(Cl)c1`, the RP-LC retention time worked out at 797 s.

`Cc1ccc(C(=O)N(c2ccc(Br)cc2)C2C=CS(=O)(=O)C2)cc1` (stereo not given): the RP-LC retention time was 835 s. `O=C(NCCc1csc2nc(-c3cccs3)nn12)c1c(F)cccc1Cl`: the RP-LC retention time turned out to be 792 s.

On to `CCN1CCC2(CC1)OC(=O)C(C)=C2C(=O)NCc1ccc(Cl)cc1`, for which the RP-LC retention time is 643 s. In turn, `CCOCC(=O)N1CCCN(C2=NS(=O)(=O)C(c3ccc(CC)cc3)=C2C)CC1` displayed an RP-LC retention time of 790 s.

`Cc1cccc(NS(=O)(=O)c2cc3c(s2)CCN(C(=O)C2CCC2)C3)c1C` displayed an RP-LC retention time of 942 s. `OCCNCc1ccc(-c2cccc(C(F)(F)F)c2)o1` had an RP-LC retention time of 649 s.

On to `COc1ccc(C2C(C(=O)N3CCCC3)c3cc(OC)c(OC)cc3C(=O)N2C)cc1OC` (stereo not given), for which the RP-LC retention time is 660 s.

In the case of `O=C(Cn1c(=O)c2cccn2c2ccccc21)Nc1cccc(Cl)c1`, the RP-LC retention time is 904 s.
